Experimental data taken from patent US20240158359A1, “HYDROLYSIS-RESISTANT ESTERS FOR DRUG AND IMAGING AGENT DELIVERY” (The Board of Trustees of the University of lllinois, priority 2022, published 2024).

Tests used:
[1] = Hydrolytic stability of BL660 esters in PBS, luciferase BL readout; assay type: physicochemical; settings: for rate of hydrolysis: 10 μM, PBS pH 7.4, 37° C., 1, 6 and 12 hours
Description: We began our analysis of stability by incubating BL660 esters of Compound (1), Compound (2), and Compound (3) at 37° C. in PBS (phosphate-buffered saline) (pH 7.4). After 1, 6, and 12 hours, luciferase was added (10mU, 37° C., pH 7.4) to initiate BL production. The rate of hydrolysis, reported as total luminescence counts per hour, indicates hydrolysis in descending order is: Compound (1) (13.9±1.4×10^3); Compound (2) (3.3±0.6×10^3), and Compound (3) (1.0±0.1×10^3) (FIG. 1b, wherein the esters are indicated on the horizontal axis) and FIG. 8 (wherein the respective timeline plots are identified beneath the horizontal axis as (1), (2), etc.). Luminescent counts were recorded using an IVIS In Vivo Imaging System. […] Without wishing to be bound by any theory, we speculate hydrolysis of (3) may involve an SN1 mechanism, thus favoring formation of a double benzylic carbocation.

porcine liver esterase = experiment: Esterase reactivity: treatment with porcine liver esterase, BL readout; assay type: in vitro ADME; settings: 10 μM, porcine liver esterase 0.1 units/mL, 37° C., pH 7.4, 20, 40 and 60 minutes
Text: The enzymatic rates, reported as total luminescence counts per minute, in descending order are: Compound (1) (31.0±6.8×10^2), (3) (9.5±1.2×10^2), and (2) (0.6±0.1×10^2) (FIG. 1c and FIG. 9). The greater stability imparted by the aromatic ring is not surprising since esterase reactivity can be readily attenuated with bulkier substituents.

A549 cells = experiment: MTT assay using MTX-Me2 and MTX-(PhiPr)2; assay type: cell-based; settings: highest concentration (10 μM), 24 hours
Description: Next, we modified the two carboxylates in methotrexate (a potent anticancer and immunosuppressive drug) to afford the methyl (MTX-Me2) or Ph^iPr (MTX-(Ph^iPr)2) ester variants (FIG. 2b). A549 cells were cultured and treated with MTX-Me2 or MTX-(Ph^iPr)2 at various concentrations for 24 hours before they were subjected to MTT analyses. […] Statistical analysis for FIG. 3b, FIG. 3c and FIG. 3d was performed using a two-tailed t-test (α=0.05, **** P<0.001)
48-well plates were seeded with 30,000 A549 cells per well (500 μL of 60,000 cells/mL) and incubated at 37° C. with 5% CO2 for 24 hours. Media was removed and fresh serum-free RPMI 1640 containing […] of MTX-Me2 or MTX-(PriPr)2 were added (0.1% DMSO final v/v). The media was removed after 24 hours incubation and replaced with 500 μL of a 20:1 mixture of serum-free RPMI 1640 and (3-(4,5-dimethylthiazol2-yl)-2,5-diphenyl-tetrazolium bromide (MTT, 5 mg/mL stock in PBS). The cells were incubated for 2 hours under the same condition and then the medium was removed and replaced with DMSO (500 μL/well). The absorbance of each well was recorded at 555 nm on a microplate reader. Viability was calculated by the absorbance relative to the vehicle control.

4T1-Luc cells = experiment: Ester stability in live 4T1-Luc cells, BL imaging; assay type: cell-based, murine; settings: 10 μM
Description: First, we prepared BL660-Me, a methyl ester derivative of BL660 as shown in FIG. 2a for comparison to the benzyl ester (4) of FIG. 1a. Next, we cultured 4T1 murine breast cancer cells, stably expressing the luciferase enzyme (4T1-Luc). The cells were then treated with a DMSO (dimethyl sulfoxide) vehicle control, BL660-Me or Compound (4) (FIG. 3a and FIG. 10a, b, c respectively?). Imaging was performed using the IVIS In Vivo Imaging System.
4T1-Luc cell was cultured in phenol red-free RPMI 1640 (ATCC) with 10% fetal bovine serum (FBS, Sigma Aldrich), and 1% penicillin/streptomycin (Corning).
Evaluation of BL660-Me and 4 in 4T1-Luc Cells. 4T1-Luc cells (180K) were seeded into 24-well plates and incubated for 24 hours. The cells were ˜85% confluent. The media was removed and replaced with serum-free RPMI 1640. An initial background scan was recorded on an IVIS imaging system in open mode where no filters were applied. Cells were then treated with DMSO (2.5 μL, 0.5%), BL660-Me, or compound 4 in DMSO (10 μM final concentration). After 30 minutes incubation at 37° C., bioluminescence was collected. ROIs were drawn around each well. The total luminescence count for each well for a given condition was averaged. The signal intensity was quantified using the Living Image Analysis Software.

| SMILES | rate of hydrolysis [1] | enzymatic rate (porcine liver esterase) | viability (A549 cells) [%] | further results |
| --- | --- | --- | --- | --- |
| CCN(CC)c1ccc(C=CC=CC2=NC(C(=O)OCc3ccccc3)CS2)cc1 (stereo not drawn) [Compound (1)] | 13.9±1.4×10^3 total luminescence counts per hour | 31.0±6.8×10^2 total luminescence counts per minute | – | – |
| COC(=O)CCC(NC(=O)c1ccc(N(C)Cc2cnc3nc(N)nc(N)c3n2)cc1)C(=O)OC (stereo not drawn) [MTX-Me2, reference compound] | – | – | ~63 | – |
| CCN(CC)c1ccc(C=CC=CC2=NC(C(=O)OC(C)c3ccccc3)CS2)cc1 (stereo not drawn) [Compound (3)] | 1.0±0.1×10^3 total luminescence counts per hour | 9.5±1.2×10^2 total luminescence counts per minute | – | effectiveness at blocking hydrolysis, methyl substituent of (3) versus phenyl group of (2) ([1]; PBS pH 7.4, 37° C.): over three-fold more effective at blocking hydrolysis |
| CCN(CC)c1ccc(C=CC=CC2=NC(C(=O)OC(c3ccccc3)c3ccccc3)CS2)cc1 (stereo not drawn) [Compound (2)] | 3.3±0.6×10^3 total luminescence counts per hour | 0.6±0.1×10^2 total luminescence counts per minute | – | – |
| CC(C)C(OC(=O)CCC(NC(=O)c1ccc(N(C)Cc2cnc3nc(N)nc(N)c3n2)cc1)C(=O)OC(c1ccccc1)C(C)C)c1ccccc1 (mixture of isomers) [MTX-(Ph^iPr)2] | – | – | 100 | – |
| CCN(CC)c1ccc(C=CC=CC2=NC(C(=O)OC)CS2)cc1 (stereo not drawn) [BL660-Me] | – | – | – | luminescence relative to Compound (4) (4T1-Luc cells; 30 mins): 31 fold; luminescence relative to the vehicle (4T1-Luc cells; 30 mins): 55 fold; total luminescence count (4T1-Luc cells; 30 mins at 37° C.): 94.1±5.9×10^3 total luminescence count |
